Measured values taken from patent publication US9573957B2 (Boehringer Ingelheim International GmbH, priority 2013, dated 2017).

What was measured:
human LTA4 hydrolase = human LTA4 hydrolase (Homo sapiens (Human), UniProt P09960); assay: LTA4H Enzyme assay (peptidase, Arg-AMC cleavage); format: biochemical; conditions: LTA4H Enzyme 1 nM, Arg-AMC substrate 50 μM, room temperature 1 h, fluorescence
Outline: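 Aminomethylcoumarin release measured fluorimetrically (380/460 nm) after 1 h at room temperature. Reaction: 1 nM final enzyme, 50 μM final Arg-AMC and compound in Tris-HCl pH 7.5 with 100 mM KCl and 0.5% BSA.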

[1] = tested on: synthesis of LTB4 in human whole blood; assay: LTB4 production inhibition assay in human whole blood (HWB); format: cell-based; conditions: heparinized human whole blood, 15 min at 37° C., Calcimycin 20 μM 30 min, plasma LTB4 by HTRF
Outline: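 LTB4 in plasma read by HTRF immunoassay after centrifugation. Before that, compound sat with heparinized human whole blood 15 min at 37° C, followed by 30 min at 37° C with 20 μM (final) calcimycin.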

human LTA4 hydrolase, sequence (P09960 whole entry): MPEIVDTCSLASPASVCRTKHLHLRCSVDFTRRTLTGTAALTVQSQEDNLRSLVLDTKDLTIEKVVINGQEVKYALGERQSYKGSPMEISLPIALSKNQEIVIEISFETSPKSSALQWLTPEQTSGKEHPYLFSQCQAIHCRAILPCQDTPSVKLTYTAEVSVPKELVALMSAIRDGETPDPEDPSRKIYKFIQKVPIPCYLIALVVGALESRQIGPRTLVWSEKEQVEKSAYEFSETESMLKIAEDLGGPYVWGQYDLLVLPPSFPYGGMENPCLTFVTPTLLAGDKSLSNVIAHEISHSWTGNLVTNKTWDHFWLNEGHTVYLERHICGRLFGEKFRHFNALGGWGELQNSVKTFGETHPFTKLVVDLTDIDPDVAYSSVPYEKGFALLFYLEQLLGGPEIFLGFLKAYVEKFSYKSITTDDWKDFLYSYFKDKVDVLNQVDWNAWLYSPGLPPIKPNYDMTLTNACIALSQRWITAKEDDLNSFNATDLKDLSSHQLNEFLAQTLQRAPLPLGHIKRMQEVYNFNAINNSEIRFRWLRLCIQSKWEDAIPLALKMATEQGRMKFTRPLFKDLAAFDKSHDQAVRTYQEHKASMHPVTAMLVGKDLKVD

Compound | IC50 (human LTA4 hydrolase) | IC50 [1]
C[C@H](O)CC(=O)N1CCN(Cc2ccc3cc(Oc4ccc(-c5ccn[nH]5)cn4)ccc3n2)CC1 [Example 117, (S)-3-Hydroxy-1-(4-{6-[5-(2H-pyrazol-3-yl)-pyridin-2-yloxy]-quinolin-2-ylmethyl}-piperazin-1-yl)-butan-1-one] | 3.7 nM | 670 nM
C[C@@H](O)CC(=O)N1CCN(Cc2ccc3cc(Oc4ccc(-c5ccn[nH]5)cn4)ccc3n2)CC1 [Example 121, (R)-3-Hydroxy-1-(4-{6-[5-(2H-pyrazol-3-yl)-pyridin-2-yloxy]-quinolin-2-ylmethyl}-piperazin-1-yl)-butan-1-one] | 4.9 nM | 620 nM
CC(C)(O)CC(=O)N1CCN(Cc2ccc3cc(Oc4ccc(-c5ccn[nH]5)cn4)ccc3n2)CC1 [Example 122, 3-Hydroxy-3-methyl-1-(4-{6-[5-(2H-pyrazol-3-yl)-pyridin-2-yloxy]-quinolin-2-ylmethyl}-piperazin-1-yl)-butan-1-one] | 3.9 nM | 570 nM
C[C@H](O)C(=O)N1CCN(Cc2ccc3cc(Oc4ccc(-c5ccn[nH]5)cn4)ccc3n2)CC1 [Example 129, (S)-2-Hydroxy-1-(4-{6-[5-(2H-pyrazol-3-yl)-pyridin-2-yloxy]-quinolin-2-ylmethyl}-piperazin-1-yl)-propan-1-one] | 0.86 nM | 180 nM
CC(C)OCC(=O)N1CCN(Cc2ccc3cc(Oc4ccc(-c5ccn[nH]5)cn4)ccc3n2)CC1 [Example 130, 2-Isopropoxy-1-(4-{6-[5-(2H-pyrazol-3-yl)-pyridin-2-yloxy]-quinolin-2-ylmethyl}-piperazin-1-yl)-ethanone] | 2.5 nM | 630 nM
O=C([C@@H]1CCCO1)N1CCN(Cc2ccc3cc(Oc4ccc(-c5ccn[nH]5)cn4)ccc3n2)CC1 [Example 132, (4-{6-[5-(2H-Pyrazol-3-yl)-pyridin-2-yloxy]-quinolin-2-ylmethyl}-piperazin-1-yl)-(S)-tetrahydro-furan-2-yl-methanone] | 2.9 nM | 630 nM
CC[C@@H](O)C(=O)N1CCN(Cc2ccc3cc(Oc4ccc(-c5ccn[nH]5)cn4)ccc3n2)CC1 [Example 134, (R)-2-Hydroxy-1-(4-{6-[5-(2H-pyrazol-3-yl)-pyridin-2-yloxy]-quinolin-2-ylmethyl}-piperazin-1-yl)-butan-1-one] | 3.1 nM | 410 nM
CC(C)(CO)C(=O)N1CCN(Cc2ccc3cc(Oc4ccc(-c5ccn[nH]5)cn4)ccc3n2)CC1 [Example 135, 3-Hydroxy-2,2-dimethyl-1-(4-{6-[5-(2H-pyrazol-3-yl)-pyridin-2-yloxy]-quinolin-2-ylmethyl}-piperazin-1-yl)-propan-1-one] | 5.4 nM | 610 nM
O=C(C1C2COCC21)N1CCN(Cc2ccc3cc(Oc4ccc(-c5ccn[nH]5)cn4)ccc3n2)CC1 (stereo not drawn) [Example 136, (3-Oxa-bicyclo[3.1.0]hex-6-yl)-(4-{6-[5-(2H-pyrazol-3-yl)-pyridin-2-yloxy]-quinolin-2-ylmethyl}-piperazin-1-yl)-methanone] | 6 nM | 770 nM

Continued by falling IC50 (human LTA4 hydrolase), values first:

IC50 (human LTA4 hydrolase) | IC50 [1] | Compound
8.6 nM | 1200 nM | O=C(N1CCN(Cc2ccc3cc(Oc4ccc(-c5ccn[nH]5)cn4)ccc3n2)CC1)C1(O)CCCC1 [Example 119, (1-Hydroxy-cyclopentyl)-(4-{6-[5-(2H-pyrazol-3-yl)-pyridin-2-yloxy]-quinolin-2-ylmethyl}-piperazin-1-yl)-methanone]
5.9 nM | 700 nM | CC(C)[C@@H](O)C(=O)N1CCN(Cc2ccc3cc(Oc4ccc(-c5ccn[nH]5)cn4)ccc3n2)CC1 [Example 120, (R)-2-Hydroxy-3-methyl-1-(4-{6-[5-(2H-pyrazol-3-yl)-pyridin-2-yloxy]-quinolin-2-ylmethyl}-piperazin-1-yl)-butan-1-one]
2.9 nM | 320 nM | O=C([C@H]1CCCO1)N1CCN(Cc2ccc3cc(Oc4ccc(-c5ccn[nH]5)cn4)ccc3n2)CC1 [Example 133, (4-{6-[5-(2H-Pyrazol-3-yl)-pyridin-2-yloxy]-quinolin-2-ylmethyl}-piperazin-1-yl)-(R)-tetrahydro-furan-2-yl-methanone]
2.6 nM | 420 nM | CCOCC(=O)N1CCN(Cc2ccc3cc(Oc4ccc(-c5ccn[nH]5)cn4)ccc3n2)CC1 [Example 124, 2-Ethoxy-1-(4-{6-[5-(2H-pyrazol-3-yl)-pyridin-2-yloxy]-quinolin-2-ylmethyl}-piperazin-1-yl)-ethanone]
2.5 nM | 440 nM | CC(C)[C@H](O)C(=O)N1CCN(Cc2ccc3cc(Oc4ccc(-c5ccn[nH]5)cn4)ccc3n2)CC1 [Example 137, (S)-2-Hydroxy-3-methyl-1-(4-{6-[5-(2H-pyrazol-3-yl)-pyridin-2-yloxy]-quinolin-2-ylmethyl}-piperazin-1-yl)-butan-1-one]
2.3 nM | 320 nM | CC[C@H](O)C(=O)N1CCN(Cc2ccc3cc(Oc4ccc(-c5ccn[nH]5)cn4)ccc3n2)CC1 [Example 127, (S)-2-Hydroxy-1-(4-{6-[5-(2H-pyrazol-3-yl)-pyridin-2-yloxy]-quinolin-2-ylmethyl}-piperazin-1-yl)-butan-1-one]
2.3 nM | 360 nM | O=C(C1CCOCC1)N1CCN(Cc2ccc3cc(Oc4ccc(-c5ccn[nH]5)cn4)ccc3n2)CC1 [Example 131, (4-{6-[5-(2H-Pyrazol-3-yl)-pyridin-2-yloxy]-quinolin-2-ylmethyl}-piperazin-1-yl)-(tetrahydro-pyran-4-yl)-methanone]
1.2 nM | 340 nM | CC(C)(O)C(=O)N1CCN(Cc2ccc3cc(Oc4ccc(-c5ccn[nH]5)cn4)ccc3n2)CC1 [Example 125, 2-Hydroxy-2-methyl-1-(4-{6-[5-(2H-pyrazol-3-yl)-pyridin-2-yloxy]-quinolin-2-ylmethyl}-piperazin-1-yl)-propan-1-one]
1 nM | 250 nM | O=C(N1CCN(Cc2ccc3cc(Oc4ccc(-c5ccn[nH]5)cn4)ccc3n2)CC1)C1(O)CC1 [Example 126, (1-Hydroxy-cyclopropyl)-(4-{6-[5-(2H-pyrazol-3-yl)-pyridin-2-yloxy]-quinolin-2-ylmethyl}-piperazin-1-yl)-methanone]
0.88 nM | 200 nM | C[C@@H](O)C(=O)N1CCN(Cc2ccc3cc(Oc4ccc(-c5ccn[nH]5)cn4)ccc3n2)CC1 [Example 123, (R)-2-Hydroxy-1-(4-{6-[5-(2H-pyrazol-3-yl)-pyridin-2-yloxy]-quinolin-2-ylmethyl}-piperazin-1-yl)-propan-1-one]
0.67 nM | 170 nM | CO[C@@H](C)C(=O)N1CCN(Cc2ccc3cc(Oc4ccc(-c5ccn[nH]5)cn4)ccc3n2)CC1 [Example 118, (S)-2-Methoxy-1-(4-{6-[5-(2H-pyrazol-3-yl)-pyridin-2-yloxy]-quinolin-2-ylmethyl}-piperazin-1-yl)-propan-1-one]
0.56 nM | 240 nM | COC(C)(C)C(=O)N1CCN(Cc2ccc3cc(Oc4ccc(-c5ccn[nH]5)cn4)ccc3n2)CC1 [Example 128, 2-Methoxy-2-methyl-1-(4-{6-[5-(2H-pyrazol-3-yl)-pyridin-2-yloxy]-quinolin-2-ylmethyl}-piperazin-1-yl)-propan-1-one]
